Data as given in PubChem BioAssay AID588780 (Sanford-Burnham Center for Chemical Genomics, 2011).
Activity calls are given as the source filed them.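 How the source made its calls: active means compounds whose fitted half-maximal concentration in the cell-protection dose series is at or below a set limit; inactive means the rest.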

system: H9c2 cardiomyocytes, 2-deoxyglucose stress, ATP luminescence, 2 h; experiment: H9c2 cell survival under 2-deoxyglucose stress – uHTS hits, dose response (AID 588780)

Row | Structure (SMILES) | IC50
1 | CCOc1ccc(N(CC(=O)N/N=C/c2ccccn2)S(=O)(=O)c2ccc(Cl)cc2)cc1 | > 79 µM (inactive)
2 | CC(C)COP(=O)(OCC(C)C)C(Nc1ccccc1)c1ccc2c(c1)OCO2 (stereo unspecified) | > 79 µM (inactive)
3 | COC(=O)c1ccc(Cn2nnc3c(=O)[nH]c(C4CCCN(S(=O)(=O)c5ccccc5)C4)nc32)cc1 (stereo unspecified) | > 79 µM (inactive)
4 | Cc1noc(C)c1Cn1nc(C(=O)O)c2ccccc2c1=O | > 79 µM (inactive)
5 | CCN(CC)CCn1c(NC(=O)c2ccc(Cl)cc2)nc2ccccc21 | > 79 µM (inactive)
6 | CC12C=CC(=O)CC1CCC1C2CCC2(C)C(O)C(O)CC12 (stereo unspecified) | 12.3 µM
7 | Cc1c(C#N)c(N)nc2c3c(sc12)NC(=O)CC3c1ccc(Cl)cc1 (stereo unspecified) | 19.7 µM
8 | O=C(NC1CCCCC1)C(c1ccc2ncccc2c1)N(Cc1cccs1)C(=O)c1cccs1 (stereo unspecified) | 22 µM
9 | NS(=O)(=O)c1ccc(N=Cc2c(O)n(-c3nccs3)c(=O)c3ccccc23)cc1 | > 79 µM (inactive)
10 | COC(=O)[C@@]12CCCCN1[C@H](c1ccc(-c3cc(C(C)=O)cs3)cc1)[C@H]1C(=O)N(C)C(=O)[C@H]12 | > 79 µM (inactive)
11 | O=C(COc1cccc(F)c1)Nc1nc(-c2ccccn2)cs1 | 30.9 µM (inactive)
12 | COc1ccccc1N1CCN(C(=O)c2ccc3nc(-c4ccco4)c(-c4ccco4)nc3c2)CC1 | 17.6 µM
13 | COC(=O)c1cc(C(=O)OCC(=O)N2c3ccccc3NC(=O)C2(C)C)cc([N+](=O)[O-])c1 | 39 µM (inactive)
14 | CCOc1ccc(CCNC(=O)c2cc3c(C)nccc3[nH]c2=O)cc1OCC | 12.4 µM
15 | CC(C)(C)C(=O)Nc1ccc(C(=O)N/N=C/c2ccccc2OC(=O)c2ccccc2)cc1 | > 79 µM (inactive)
16 | COc1ccc(OC)c(N(CC(=O)Nc2cccnc2)S(=O)(=O)c2ccc(OC)c(OC)c2)c1 | 42.7 µM (inactive)
17 | COc1ccc(C(=O)Nc2nc(-c3ccccn3)cs2)cc1S(=O)(=O)N1CCOCC1 | 16.1 µM
18 | CCOC(=O)C1=NN(C(=O)c2ccco2)C2(CC2)C1 | > 79 µM (inactive)
19 | CCOC(=O)c1[nH]c2cc(OC)c(OC)cc2c1NC(=O)C(C)N1CCN(Cc2ccccc2)CC1 (stereo unspecified) | > 79 µM (inactive)
20 | C=CCOc1ccc(C=Nc2ccc(OC)cc2)c(O)c1 | 23.8 µM
21 | COc1cc2c(cc1OC)C(COc1ccc3c(C)cc(=O)oc3c1)N(C(=O)c1ccco1)CC2 (stereo unspecified) | 10.1 µM
22 | O=C(CCC(=O)N1CCN(C2CCCCC2)CC1)Nc1nnc(C(F)(F)F)s1 | > 79 µM (inactive)
23 | CC(C)(C)OC(=O)CNC(=O)c1[nH]cnc1C(=O)NCC(=O)OCc1ccccc1 | > 79 µM (inactive)

Row | Structure (SMILES) | IC50
24 | Cc1sc2nc(SCC(=O)N3CCCC3)[nH]c(=O)c2c1C | > 79 µM (inactive)
25 | Nc1cc2[nH]c(=O)c3ccccc3c2cc1Br | > 79 µM (inactive)
26 | COc1ccc(NC(=O)N(CCCN(C)C)Cc2cc3cc(OC)ccc3[nH]c2=O)cc1 | > 79 µM (inactive)
27 | O=C(COC(=O)Cc1n[nH]c(=O)c2ccccc12)Nc1c(Br)cc([N+](=O)[O-])cc1Br | > 79 µM (inactive)
28 | CC(=O)Nc1cccc(-c2cc(NC=O)c3ncc(-c4cccc(C(C)=O)c4)n3c2)c1 | > 79 µM (inactive)
29 | O=C(Nc1ccccc1)c1cccc2c(-c3cccnc3)coc12 | > 79 µM (inactive)
30 | COc1ccc(C2/C=C\CN(S(=O)(=O)c3cccc4cccnc34)CC(=O)N2Cc2ccc(F)cc2)cc1 (stereo unspecified) | > 79 µM (inactive)
31 | CCC(=O)N1CCN(c2ccc(NC(=O)c3cc4ccccc4o3)cc2Cl)CC1 | > 79 µM (inactive)
32 | COc1ccccc1-c1cc(C(=O)N/N=C/C=C/c2ccccc2[N+](=O)[O-])c2ccccc2n1 | > 79 µM (inactive)
33 | Cc1ccc(C)c2[nH]c(=O)c(CN(Cc3ccc4c(c3)OCO4)Cc3nnnn3Cc3ccco3)cc12 | 13.1 µM
34 | CCN(C[C@H]1N[C@@](Cc2ccccc2)(C(=O)OC)[C@H]2C(=O)N(C)C(=O)[C@@H]12)S(=O)(=O)c1ccc(OC)cc1 | 37.2 µM (inactive)
35 | CCn1c(O)c(/C=N/N=C2CCCC2)c2ccc(C3=NNC(=O)CC3)cc21 | > 79 µM (inactive)
36 | Cc1ccc(N2C(=O)CS/C2=C(\C(Cl)=C(Cl)Cl)[N+](=O)[O-])cc1 | > 79 µM (inactive)
37 | COc1cc(/C=c2\s/c(=C(/C#N)C(=O)N3CCCC3)n(-c3ccccc3)c2=O)ccc1O | 25 µM
38 | O=c1[nH]nc(Cc2ccc([N+](=O)[O-])cc2)c2ccccc12 | 29.5 µM
39 | COC(=O)c1cc2ccccn2c2c(C(=O)OC)c(C(=O)OC)cc1-2 | > 79 µM (inactive)
40 | CCCCc1cc(=O)oc2cc(O)ccc12 | > 79 µM (inactive)
41 | O=C(CCc1nc2ccccc2c(=O)[nH]1)NNC(=O)c1ccc(Cl)cc1 | > 79 µM (inactive)
42 | O=C(O)c1ccc2c(c1)S(=O)(=O)c1cc(N3CCN(c4cnccn4)CC3)ccc1C2=O | > 79 µM (inactive)
43 | CCOC(=O)CNS(=O)(=O)c1cc(-c2n[nH]c(=O)c3ccccc23)ccc1C | > 79 µM (inactive)
44 | CCOC(=O)Cc1n[nH]c(=O)c2ccccc12 | > 79 µM (inactive)
45 | Cc1ccc2nc(-c3ccccc3)cc(C(=O)NNC(=O)c3csc(N4CCOCC4)n3)c2c1 | > 79 µM (inactive)
46 | O=C(Nc1cccc(N=Cc2cc(Br)cc(Br)c2O)c1)c1ccco1 | > 79 µM (inactive)

Row | Structure (SMILES) | IC50
47 | COc1cc(/C=N/n2nnnc2Nc2ccccc2)cc(OC)c1OC | 26.8 µM
48 | O=C(CCc1nc2ccccc2c(=O)[nH]1)NNC(=O)c1ccccc1Cl | > 79 µM (inactive)
49 | CCOc1cccc(-c2c(C(=O)N/N=C(\C)c3ccccn3)nnn2-c2nonc2N)c1 | > 79 µM (inactive)
50 | COc1ccc(Br)cc1C(=O)Nc1cccc(NC(=O)c2ccco2)c1 | > 79 µM (inactive)
51 | O=c1[nH]nc(Cc2ccccn2)c2ccccc12 | > 79 µM (inactive)
52 | Cc1nn(C)cc1C(C(=O)NC1CCCCC1)N(C(=O)Cc1cccs1)c1ccc(Cl)cc1 (stereo unspecified) | 27.5 µM
53 | COc1cccc(-c2nn(-c3ccccc3)cc2C(=O)Nc2nccs2)c1 | > 79 µM (inactive)
54 | COC(=O)c1ccc(Cn2c(C)c(C(=O)NCc3cccs3)sc2=O)o1 | > 79 µM (inactive)
55 | COc1ccc(S(=O)(=O)N2CC(O)CC2C(=O)OCc2nc3sc(C)c(C)c3c(=O)[nH]2)cc1 (stereo unspecified) | > 79 µM (inactive)
56 | CCOC(=O)C1CCN(c2cc3c(cc2NC(=O)c2ccccc2)n(C)c(=O)n3C)CC1 | > 79 µM (inactive)
57 | O=C(CCc1nc2ccccc2c(=O)[nH]1)NNC(=O)COc1cccc(F)c1 | > 79 µM (inactive)
58 | Cc1c(O)c(CN2CCCCC2)cc2c1oc(=O)c1ccccc12 | > 79 µM (inactive)
59 | CCOC(=O)Cn1c(=NC(=O)c2cc(-c3cccs3)nc3ccccc23)sc2cc(S(N)(=O)=O)ccc21 | > 79 µM (inactive)
60 | COCCCn1c(N)c(C(=O)Nc2sc3c(c2C(=O)OC)CCCC3)c2nc3ccccc3nc21 | 34 µM (inactive)
61 | COc1ccccc1NC(=O)CSc1ccc2nnc(-c3ccc(C)cc3)n2n1 | > 79 µM (inactive)
62 | Cc1ccc(-c2n[nH]c(=O)c3ccccc23)cc1S(=O)(=O)NCCO | 39.8 µM (inactive)
63 | Cc1cc(C)c2c(N)c(C(=O)N/N=C/c3cccnc3)sc2n1 | 19.1 µM
64 | Cc1nc(N2CCN(c3ccccn3)CC2)c2c(C)c(C(=O)Nc3ccccc3F)sc2n1 | 10.5 µM
65 | COc1c(O)cccc1/C=N/NC(=O)Cn1ccnc1C | > 79 µM (inactive)
66 | CCCN(CCC)S(=O)(=O)c1ccc(C(=O)Nc2nnc(-c3cc(OC)cc(OC)c3)o2)cc1 | 9.06 µM
67 | O=C(CSc1nnc(-c2cccnc2)n1Cc1ccco1)c1ccccc1 | > 79 µM (inactive)
68 | Cc1cccc(NC(=O)c2cc(-c3ccco3)nc3ccccc23)n1 | > 79 µM (inactive)
69 | O=C(CCc1nc2ccccc2c(=O)[nH]1)NCCN1C(=O)S/C(=C\c2ccc(OC(F)F)cc2)C1=O | > 79 µM (inactive)

Row | Structure (SMILES) | IC50
70 | COc1ccc(-c2oc3c(OC)c(OC)c(OC)c(O)c3c(=O)c2OC)cc1OC | > 79 µM (inactive)
71 | CC(OC(=O)Cc1n[nH]c(=O)c2ccccc12)C(=O)Nc1cccc([N+](=O)[O-])c1 (stereo unspecified) | 44.4 µM (inactive)
72 | O=C(Nc1ccc(C(=O)N2CCOCC2)cc1)c1cnn2c(C(F)F)cc(-c3ccccc3)nc12 | > 79 µM (inactive)
73 | CCOC(=O)C1CCN(C(=O)c2ccc3c(=O)n4nc(Nc5ccccc5OC)sc4nc3c2)CC1 | 19.3 µM
74 | O=c1oc2ccc3ccccc3c2cc1-c1nnc(-c2ccccc2)o1 | 17.3 µM
75 | O=C(Cn1[nH]c(=O)c2ccccc2c1=O)NCC1COc2ccccc2O1 (stereo unspecified) | > 79 µM (inactive)
76 | Oc1ccc(Cl)cc1C=Nc1ccc2c3c(cccc13)CC2 | > 79 µM (inactive)
77 | COC(=O)c1[nH]c2ccccc2c1NC(=O)CNC1CCCCC1 | > 79 µM (inactive)
78 | O=C(N/N=C/c1cn(-c2ccccc2)nc1-c1cccnc1)c1cccnc1 | > 79 µM (inactive)
79 | CC(=O)Nc1ccc(NS(=O)(=O)c2cc(-c3n[nH]c(=O)c4ccccc34)ccc2C)cc1 | > 79 µM (inactive)
80 | COC(=O)/C(=C(O)\C=C\c1ccccc1[N+](=O)[O-])c1nc2ccccc2[nH]1 | > 79 µM (inactive)
81 | COc1cc(-n2c(=O)c3ccccc3n(Cc3cc(=O)n4ccccc4n3)c2=O)cc(OC)c1OC | > 79 µM (inactive)
82 | COc1ccc(OC)c(NC(=O)COC(=O)c2c3c(nc4ccccc24)CCCC3)c1 | > 79 µM (inactive)
83 | O=C1[C@H]2[C@@H](c3ccc(C(F)(F)F)cc3)N[C@]3(CCCN(Cc4ccc(F)cc4)C3=O)[C@H]2C(=O)N1Cc1ccccc1 | > 79 µM (inactive)
84 | CC(=O)Nc1ccc(S(=O)(=O)N(Cc2ccco2)Cc2cc3ccccc3[nH]c2=O)cc1 | > 79 µM (inactive)
85 | COc1cc(/C=C/C(=O)OCC(=O)N2c3ccccc3NC(=O)C2(C)C)cc(OC)c1OC | > 79 µM (inactive)
86 | O=C(CSc1ccc(-c2ccccn2)nn1)N1CCCc2ccccc21 | > 79 µM (inactive)
87 | COc1ccccc1NS(=O)(=O)c1cc(NC(=O)CCc2nc3ccccc3c(=O)[nH]2)ccc1C | 11.4 µM
88 | COc1cc(C)cc2oc(=O)c(CC(=O)N3CCN(C(=O)C4COc5ccccc5O4)CC3)c(C)c12 (stereo unspecified) | 34.9 µM (inactive)
89 | CC/C(C)=N\N=C\c1c(O)n(CC)c2cc(C3=NNC(=O)CC3)ccc12 | 32.4 µM (inactive)
90 | c1ccc(-c2nn3c(-c4ccco4)nnc3s2)nc1 | 43.9 µM (inactive)
91 | O=C(CCCn1c(SCC(=O)c2ccc(O)c(O)c2)nc2ccccc2c1=O)NCC1CCCO1 (stereo unspecified) | 38.7 µM (inactive)
